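Exposure lasted 48 hours, with cells grown in 96-well plates and compounds tested at five concentrations. Here, GI50 denotes the concentration required for 50% inhibition of growth. TGI: concentration producing complete growth inhibition.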
Key:
Assay in all cases: NCI tumour cell line growth inhibition, 48 h
MALME-3M melanoma = test system: MALME-3M melanoma
RPMI-8226 leukemia = test system: RPMI-8226 leukemia
HT29 colon = test system: HT29 colon
NCI-H460 lung = test system: NCI-H460 lung
UACC-257 melanoma = test system: UACC-257 melanoma
TK-10 renal = test system: TK-10 renal
SF-268 CNS = test system: SF-268 CNS
SK-MEL-2 melanoma = test system: SK-MEL-2 melanoma
MOLT-4 leukemia = test system: MOLT-4 leukemia
CAKI-1 renal = test system: CAKI-1 renal
NCI-H226 lung = test system: NCI-H226 lung
SK-OV-3 ovarian = test system: SK-OV-3 ovarian
OVCAR-3 ovarian = test system: OVCAR-3 ovarian
HCT-116 colon = test system: HCT-116 colon
UO-31 renal = test system: UO-31 renal
BT-549 breast = test system: BT-549 breast
M14 melanoma = test system: M14 melanoma
MDA-MB-231 breast = test system: MDA-MB-231 breast
KM12 colon = test system: KM12 colon
OVCAR-8 ovarian = test system: OVCAR-8 ovarian
HOP-62 NSCLC = test system: HOP-62 NSCLC
ACHN renal = test system: ACHN renal
T-47D breast = test system: T-47D breast
A498 renal = test system: A498 renal
SF-539 CNS = test system: SF-539 CNS
U251 CNS = test system: U251 CNS
HS 578T breast = test system: HS 578T breast
OVCAR-5 ovarian = test system: OVCAR-5 ovarian
NCI-H522 lung = test system: NCI-H522 lung
SK-MEL-5 melanoma = test system: SK-MEL-5 melanoma
SNB-19 CNS = test system: SNB-19 CNS
IGROV1 ovarian = test system: IGROV1 ovarian
SK-MEL-28 melanoma = test system: SK-MEL-28 melanoma
SR leukemia = test system: SR leukemia
PC-3 prostate = test system: PC-3 prostate
K-562 leukemia = test system: K-562 leukemia
HL-60(TB) leukemia = test system: HL-60(TB) leukemia
OVCAR-4 ovarian = test system: OVCAR-4 ovarian
SN12C renal = test system: SN12C renal
DU-145 prostate = test system: DU-145 prostate
MCF7 breast = test system: MCF7 breast
EKVX NSCLC = test system: EKVX NSCLC
SNB-75 CNS = test system: SNB-75 CNS
MDA-MB-435 = test system: MDA-MB-435
HCC-2998 colon = test system: HCC-2998 colon
NCI-H23 lung = test system: NCI-H23 lung
786-0 renal = test system: 786-0 renal
CCRF-CEM leukemia = test system: CCRF-CEM leukemia
A549 NSCLC = test system: A549 NSCLC
NCI/ADR-RES ovarian = test system: NCI/ADR-RES ovarian
HOP-92 NSCLC = test system: HOP-92 NSCLC
UACC-62 melanoma = test system: UACC-62 melanoma
COLO 205 colon = test system: COLO 205 colon

C#C[C@]1(O)CC[C@H]2[C@@H]3CC=C4c5sc(Nc6cc(OC)ccc6OC)nc5CC[C@]4(C)[C@H]3CC[C@@]21C
GI50 (MALME-3M melanoma): 1.69 µM | TGI (MALME-3M melanoma): 8.76 µM | GI50 (RPMI-8226 leukemia): 0.193 µM | TGI (RPMI-8226 leukemia): 0.694 µM | GI50 (HT29 colon): 1.8 µM | TGI (HT29 colon): > 100 µM | GI50 (NCI-H460 lung): 2.16 µM | TGI (NCI-H460 lung): 15.1 µM | GI50 (UACC-257 melanoma): 1.95 µM | TGI (UACC-257 melanoma): 9.18 µM | GI50 (TK-10 renal): 4.15 µM | TGI (TK-10 renal): 27.5 µM | GI50 (SF-268 CNS): 3.55 µM | TGI (SF-268 CNS): 33 µM | GI50 (SK-MEL-2 melanoma): 2.28 µM | TGI (SK-MEL-2 melanoma): 42.1 µM | GI50 (MOLT-4 leukemia): 0.367 µM | TGI (MOLT-4 leukemia): 16.2 µM | GI50 (CAKI-1 renal): 1.11 µM | TGI (CAKI-1 renal): 4.68 µM | GI50 (NCI-H226 lung): 3.04 µM | TGI (NCI-H226 lung): 20.9 µM | GI50 (SK-OV-3 ovarian): 1.08 µM | TGI (SK-OV-3 ovarian): 4.37 µM | GI50 (OVCAR-3 ovarian): 2.39 µM | TGI (OVCAR-3 ovarian): 9.14 µM | GI50 (HCT-116 colon): 1.12 µM | TGI (HCT-116 colon): 2.77 µM | GI50 (UO-31 renal): 1.41 µM | TGI (UO-31 renal): 12.9 µM | GI50 (BT-549 breast): 0.61 µM | TGI (BT-549 breast): 7.03 µM | GI50 (M14 melanoma): 1.04 µM | TGI (M14 melanoma): 4.08 µM | GI50 (MDA-MB-231 breast): 2.36 µM | TGI (MDA-MB-231 breast): > 100 µM | GI50 (KM12 colon): 2.33 µM | TGI (KM12 colon): 11 µM | GI50 (OVCAR-8 ovarian): 2.94 µM | TGI (OVCAR-8 ovarian): > 100 µM | GI50 (HOP-62 NSCLC): 1.96 µM | TGI (HOP-62 NSCLC): 47.9 µM | GI50 (ACHN renal): 1.9 µM | TGI (ACHN renal): 16.5 µM | GI50 (T-47D breast): 3.04 µM | TGI (T-47D breast): > 100 µM | GI50 (A498 renal): 0.429 µM | TGI (A498 renal): 4.62 µM | GI50 (SF-539 CNS): 0.449 µM | TGI (SF-539 CNS): 1.68 µM | GI50 (U251 CNS): 0.643 µM | TGI (U251 CNS): 13.3 µM | GI50 (HS 578T breast): 0.202 µM | TGI (HS 578T breast): 0.597 µM | GI50 (OVCAR-5 ovarian): 4.14 µM | TGI (OVCAR-5 ovarian): 25.7 µM | GI50 (NCI-H522 lung): 3.9 µM | TGI (NCI-H522 lung): 29.8 µM | GI50 (SK-MEL-5 melanoma): 2.3 µM | TGI (SK-MEL-5 melanoma): 5.58 µM | GI50 (SNB-19 CNS): 3.63 µM | TGI (SNB-19 CNS): 24.3 µM | GI50 (IGROV1 ovarian): 2.93 µM | TGI (IGROV1 ovarian): 25 µM | GI50 (SK-MEL-28 melanoma): 0.406 µM | TGI (SK-MEL-28 melanoma): 5.32 µM | GI50 (SR leukemia): 0.306 µM | TGI (SR leukemia): 24.8 µM | GI50 (PC-3 prostate): 0.627 µM | TGI (PC-3 prostate): 30 µM | GI50 (K-562 leukemia): 0.553 µM | TGI (K-562 leukemia): > 100 µM | GI50 (HL-60(TB) leukemia): 0.646 µM | TGI (HL-60(TB) leukemia): 4.07 µM | GI50 (OVCAR-4 ovarian): 4.46 µM | TGI (OVCAR-4 ovarian): > 100 µM | GI50 (SN12C renal): 3.9 µM | TGI (SN12C renal): 32.7 µM | GI50 (DU-145 prostate): 1.91 µM | TGI (DU-145 prostate): 7.47 µM | GI50 (MCF7 breast): 0.454 µM | TGI (MCF7 breast): 1.74 µM | GI50 (EKVX NSCLC): 2.86 µM | TGI (EKVX NSCLC): 42.5 µM | GI50 (SNB-75 CNS): 0.386 µM | TGI (SNB-75 CNS): 13.7 µM | GI50 (MDA-MB-435): 2.79 µM | TGI (MDA-MB-435): 19.2 µM | GI50 (HCC-2998 colon): 4.11 µM | TGI (HCC-2998 colon): 23.2 µM | GI50 (NCI-H23 lung): 2.49 µM | TGI (NCI-H23 lung): 28.3 µM | GI50 (786-0 renal): 0.392 µM | TGI (786-0 renal): 5.08 µM | GI50 (CCRF-CEM leukemia): 0.619 µM | TGI (CCRF-CEM leukemia): > 100 µM | GI50 (A549 NSCLC): 3.1 µM | TGI (A549 NSCLC): 95.7 µM | GI50 (NCI/ADR-RES ovarian): 3.11 µM | TGI (NCI/ADR-RES ovarian): > 100 µM | GI50 (HOP-92 NSCLC): 4.66 µM | TGI (HOP-92 NSCLC): 74.7 µM | GI50 (UACC-62 melanoma): 1.56 µM | TGI (UACC-62 melanoma): 9.02 µM | GI50 (COLO 205 colon): 2.43 µM | TGI (COLO 205 colon): 7.83 µM
